Experimental findings from US6489331B1, “Remedies for diabetes” (Kyowa Hakko Kogyo Co., Ltd., priority 1998, dated 2002) are described below.

Counter-ions that a name gives are not always drawn.

In one data set the test system is MIN6 cell. Kind of data set: Insulin secretion enhancing action in cultured β-cell (MIN6). The settings on record: in the presence of 14.5 mM glucose; drug concentration 0.1 μM. The data set is classed as cell-based. The protocol: Culture of the MIN6 cells and insulin secretion test utilizing the MIN6 cells were performed basically according to the methods described in literature (Ishihara et al., Diabetologia, vol. 36, pp.1139-1145, 1993). The effect of a compound on the insulin secretion in the presence of 14.5 mM glucose was determined by measuring insulin amounts in cell culture supernatants collected as follows. MIN6 cells cultured on a 24-well plate were washed twice by using 1 ml of Buffer A (119 mM sodium chloride, 4.74 mM potassium chloride, 2.54 mM calcium chloride, 1.19 mM magnesium sulfate, 1.19 mM potassium dihydrogenphosphate, 10 mM 2-[4-(2-hydroxyethyl)-1-piperazinyl]ethanesulfonic acid, 0.1% bovine serum albumin, pH 7.3) containing 2 mM glucose, and then were incubated in 1 ml of Buffer A containing 2 mM glucose at 37° C. for 45 minutes. After the incubation, the culture supernatant was changed to Buffer A (0.9 ml) containing a test compound at various concentrations and 2 mM glucose, and the cells were further incubated at 37° C. for 15 minutes. The MIN6 cells were stimulated with glucose by the addition of Buffer A (0.1 ml) containing 127 mM glucose to the culture (final glucose concentration: 14.5 mM). After the stimulation, the cells were further incubated at 37° C. for 45 minutes, and then the culture supernatant was collected.
Separately, the effect of a compound on the insulin secretion in the presence of 5 mM glucose was determined by measuring insulin amounts in cell culture supernatants collected as follows. MIN6 cells cultured on a 24-well plate were washed twice by using 1 ml of Buffer A containing 5 mM glucose, and then the culture supernatant was changed to Buffer A (0.9 ml) containing a test compound at various concentrations and 5 mM glucose. Then, the cells were incubated at 37° C. for 45 minutes (final glucose concentration: 5 mM), and the culture supernatant was collected.
After the culture supernatant was diluted with a phosphate buffer containing 1% bovine serum albumin, 0.1% Tween 20, 0.12% disodium ethylenediaminetetraacetate and 0.1% sodium azide, antibody-reactive insulin secreted in the culture supernatant was quantified by enzyme immunoassay or radio immunoassay. […] The results are indicated as averages (avg) for 3 to 4 samples with standard error values (se).
In the case of `COc1ccc(Cl)cc1C(=O)NCCc1ccc(S(=O)(=O)NC(=O)NC2CCCCC2)cc1` [Glibenclamide, reference compound], the “Amount of secreted insulin (ng/ml) avg” value stood at 177.8 ng/mL.

Still in this data set, the particulars now being: in the presence of 14.5 mM glucose; drug concentration 1.0 μM.
Turning to `CCCN1C(=O)N2CC(Cc3ccc(Cl)cc3)N=C2c2[nH]c(C3CCCC3)nc21` (stereo not drawn) [Compound 20, 8-(4-chlorobenzyl)-2-cyclopentyl-7,8-dihydro-4-propyl-1H-imidazo[2,1-i]purin-5(4H)-one hydrochloride], the “Amount of secreted insulin (ng/ml) avg” value stood at 235.9 ng/mL. The same measure, in the same setting: for `CCCN1C(=O)N2C[C@@H](Cc3ccccc3)N=C2c2[nH]c(C3CCC3)nc21` [Compound 37, (R)-8-benzyl-2-cyclobutyl-7,8-dihydro-4-propyl-1H-imidazo[2,1-i]purin-5(4H)-one hydrochloride] the value was 202.8 ng/mL; for `CCCN1C(=O)N2C[C@@H](Cc3ccccc3)N=C2c2[nH]c(C(C)(C)C)nc21` [Compound 43, (R)-8-benzyl-2-tert-butyl-7,8-dihydro-4-propyl-1H-imidazo[2,1-i]purin-5(4H)-one hydrochloride], 199.1 ng/mL.

`CCCN1C(=O)N2C[C@H](C(C)(C)C)N=C2c2[nH]c(C3CCCC3)nc21.Cl` [Compound 12, (S)-8-tert-butyl-2-cyclopentyl-7,8-dihydro-4-propyl-1H-imidazo[2,1-i]purin-5(4H)-one hydrochloride]: the “Amount of secreted insulin (ng/ml) avg” value came out at 227.8 ng/mL. Take `CC(C)[C@H]1CC[C@H](C(=O)N[C@H](Cc2ccccc2)C(=O)O)CC1` [AY4166, AY-4166, reference compound]: the “Amount of secreted insulin (ng/ml) avg” value worked out at 195.1 ng/mL. Same read-out and setting: for `CCCN1C(=O)N2C[C@@H](Cc3ccc(F)cc3)N=C2c2[nH]c(-c3ccoc3)nc21` [Compound 54, (R)-8-(4-fluorobenzyl)-2-(3-furyl)-7,8-dihydro-4-propyl-1H-imidazo[2,1-i]purin-5(4H)-one] the value was 216.1 ng/mL; for `CCCN1C(=O)N2CC(Cc3cc(Cl)ccc3Cl)N=C2c2[nH]c(C3CCCC3)nc21` (stereo not drawn) [Compound 65, 2-cyclopentyl-8-(2,5-dichlorobenzyl)-7,8-dihydro-4-propyl-1H-imidazo[2,1-i]purin-5(4H)-one hydrochloride], 207.8 ng/mL. On the same count and under the same terms, to `CCCN1C(=O)N2CC(Cc3ccc(F)cc3)N=C2c2[nH]c(C3CCCCC3)nc21` (stereo not drawn) [Compound 50, 2-cyclohexyl-8-(4-fluorobenzyl)-7,8-dihydro-4-propyl-1H-imidazo[2,1-i]purin-5(4H)-one hydrochloride] belongs 209.5 ng/mL; to `CCCN1C(=O)N2CC(Cc3ccc(F)cc3)N=C2c2[nH]c(C3CCCC3)nc21` (stereo not drawn) [Compound 18, 2-cyclopentyl-8-(4-fluorobenzyl)-7,8-dihydro-4-propyl-1H-imidazo[2,1-i]purin-5(4H)-one hydrochloride], 181.9 ng/mL.

The same data set, now with this note: low glucose concentration (5 mM); controls for comparison.
Consider `CC(C)[C@H]1CC[C@H](C(=O)N[C@H](Cc2ccccc2)C(=O)O)CC1` [AY4166, AY-4166, reference compound], for which the “insulin secretion enhancing action at low glucose” value is reported as “showed marked secretion enhancing action”. Same read-out and setting: for `COc1ccc(Cl)cc1C(=O)NCCc1ccc(S(=O)(=O)NC(=O)NC2CCCCC2)cc1` [Glibenclamide, reference compound] the value was “showed marked secretion enhancing action”.

System in the next data set: not given
Test: not given
Settings: not given
Turning to `CCCc1nc2c([nH]1)C1=NC(Cc3cccc(F)c3)CN1C(=O)N2CCC.Cl` (stereo not drawn), the melting point (as a rule, the temperature of the solid-liquid transition) was 139 to 140 °C. Same read-out and setting: to `CCCN1C(=O)N2CC(Cc3cccc(F)c3)N=C2c2[nH]c(CC(C)C)nc21` (stereo not drawn) belongs 186 to 187 °C. Still for that read-out and setting: for `CCCN1C(=O)N2C[C@@H](Cc3ccccc3)N=C2c2c1ncn2Cc1ccccc1.Cl` the value was 198 to 200 °C; for `CCCN1C(=O)N2CC(CCc3ccccc3)N=C2c2[nH]c(C3CCCC3)nc21` (stereo not drawn) (as salt: hydrochloride) [Compound 31, 2-cyclopentyl-7,8-dihydro-8-phenethyl-4-propyl-1H-imidazo[2,1-i]purin-5(4H)-one hydrochloride], 171 to 173 °C.

Regarding `CCCCc1nc2c([nH]1)C1=NC(Cc3ccc(F)cc3)CN1C(=O)N2CCC.Cl` (stereo not drawn), the melting point was in the range of 193 to 196 °C. On the same count and under the same terms, for `CCCN1C(=O)N2CC(Cc3ccc(Cl)cc3)N=C2c2[nH]c(C3CCCC3)nc21` (stereo not drawn) (as salt: hydrochloride) [Compound 20, 8-(4-chlorobenzyl)-2-cyclopentyl-7,8-dihydro-4-propyl-1H-imidazo[2,1-i]purin-5(4H)-one hydrochloride] the value was 222 to 224 °C; for `CCCN1C(=O)N2C[C@H](C(C)(C)C)N=C2c2[nH]c(-c3ccoc3)nc21` [Compound 67, (S)-8-tert-butyl-2-(3-furyl)-7,8-dihydro-4-propyl-1H-imidazo[2,1-i]purin-5(4H)-one], 204 to 206 °C.

Take `CCCN1C(=O)N2C[C@H](C(C)(C)C)N=C2c2[nH]c(C3CCCC3)nc21.Cl` [Compound 12, (S)-8-tert-butyl-2-cyclopentyl-7,8-dihydro-4-propyl-1H-imidazo[2,1-i]purin-5(4H)-one hydrochloride]: the melting point fell in the range of 184 to 186 °C.

`CCCc1nc2c([nH]1)C1=NC(Cc3ccc(Cl)cc3)CN1C(=O)N2CCC.Cl` (stereo not drawn) had a melting point of 191 to 192 °C. The same measure, in the same setting: for `CCCN1C(=O)N2CC(Cc3ccc([N+](=O)[O-])cc3)N=C2c2[nH]c(C3CCCC3)nc21.Cl` (stereo not drawn) the value was 215 to 217 °C; for `CCCN1C(=O)N2C[C@@H](Cc3ccc(F)cc3)N=C2c2[nH]c(-c3ccoc3)nc21` [Compound 54, (R)-8-(4-fluorobenzyl)-2-(3-furyl)-7,8-dihydro-4-propyl-1H-imidazo[2,1-i]purin-5(4H)-one], 149 to 150 °C; for `CCCN1C(=O)N2C[C@@H](C)N=C2c2[nH]c(C3CCCC3)nc21.Cl`, 218 to 219 °C. On the same count and under the same terms, to `CCCc1nc2c([nH]1)C1=NC(Cc3ccc(F)cc3)CN1C(=O)N2CCC.Cl` (stereo not drawn) belongs 199 to 200 °C; to `CCCN1C(=O)N2CC(Cc3ccccc3F)N=C2c2[nH]c(CC(C)C)nc21` (stereo not drawn), 159 to 160 °C; to `CCCN1C(=O)N2CC(Cc3ccc(F)cc3)N=C2c2[nH]c(C3CCCC3)nc21` (stereo not drawn) (as salt: hydrochloride) [Compound 18, 2-cyclopentyl-8-(4-fluorobenzyl)-7,8-dihydro-4-propyl-1H-imidazo[2,1-i]purin-5(4H)-one hydrochloride], 226 to 228 °C. The same measure, in the same setting: for `CCCN1C(=O)N2CC(Cc3cccc(F)c3)N=C2c2[nH]c(C3CCC3)nc21.Cl` (stereo not drawn) the value was 164 to 165 °C; for `CCCc1nc2c([nH]1)C1=N[C@H](Cc3ccccc3)CN1C(=O)N2CCC` (as salt: hydrochloride) [Compound 35, (R)-8-benzyl-7,8-dihydro-2,4-dipropyl-1H-imidazo[2,1-i]purin-5(4H)-one hydrochloride], 195 to 197 °C.

For `CCCN1C(=O)N2CC(Cc3ccc(Br)cc3)N=C2c2[nH]c(C3CCCC3)nc21` (stereo not drawn) (as salt: hydrochloride) [Compound 23, 8-(4-bromobenzyl)-2-cyclopentyl-7,8-dihydro-4-propyl-1H-imidazo[2,1-i]purin-5(4H)-one hydrochloride], the melting point is 184 to 186 °C. Still for that read-out and setting: for `CCCN1C(=O)N2CC(Cc3ccc(F)cc3)N=C2c2[nH]c(C3CCCCC3)nc21` (stereo not drawn) (as salt: hydrochloride) [Compound 50, 2-cyclohexyl-8-(4-fluorobenzyl)-7,8-dihydro-4-propyl-1H-imidazo[2,1-i]purin-5(4H)-one hydrochloride] the value was 237 to 239 °C; for `CCCN1C(=O)N2C[C@@H](Cc3ccccc3)N=C2c2[nH]c(C(C)(C)C)nc21` (as salt: hydrochloride) [Compound 43, (R)-8-benzyl-2-tert-butyl-7,8-dihydro-4-propyl-1H-imidazo[2,1-i]purin-5(4H)-one hydrochloride], 220 to 222 °C. The same measure, in the same setting: to `CCCN1C(=O)N2C[C@H](C(C)C)N=C2c2[nH]c(C3CCCC3)nc21.Cl` belongs 109 to 112 °C; to `CCCN1C(=O)N2C[C@H](C(C)C)N=C2c2[nH]c(C(C)C)nc21.Cl`, 156 to 157 °C. `CCCN1C(=O)N2CC(Cc3ccc(Cl)cc3)N=C2c2[nH]c(C3CCC3)nc21.Cl` (stereo not drawn) returned a melting point of 214 to 215 °C. Compound `CCCN1C(=O)N2C[C@@H](Cc3ccccc3)N=C2c2[nH]c(C3CCC3)nc21` (as salt: hydrochloride) [Compound 37, (R)-8-benzyl-2-cyclobutyl-7,8-dihydro-4-propyl-1H-imidazo[2,1-i]purin-5(4H)-one hydrochloride] displayed a melting point of 214 to 216 °C. Regarding `CCCN1C(=O)N2CC(Cc3cc(Cl)ccc3Cl)N=C2c2[nH]c(C3CCCC3)nc21` (stereo not drawn) (as salt: hydrochloride) [Compound 65, 2-cyclopentyl-8-(2,5-dichlorobenzyl)-7,8-dihydro-4-propyl-1H-imidazo[2,1-i]purin-5(4H)-one hydrochloride], the melting point fell in the range of 172 to 173 °C. Still for that read-out and setting: to `CCCN1C(=O)N2C[C@@H](C(C)C)N=C2c2[nH]c(C3CCCC3)nc21.Cl` belongs 116 to 118 °C; to `CCCCC1CN2C(=O)N(CCC)c3nc(C4CCCC4)[nH]c3C2=N1.Cl` (stereo not drawn), 146 to 148 °C.
